Results as given in the NIST ThermoML archive (doi:10.1021/je201009c).

Assay: xn = mol fraction of the nth substance listed
Conditions: for surface tension liquid-gas: Capillary rise; for viscosity / mass density: 101 kPa, Liquid; for viscosity: Falling or rolling sphere viscometry; for mass density: Vibrating tube method

CC(=O)OCc1ccccc1 [benzyl ethanoate] + OCc1ccccc1
Conditions | mass density [kg/m3] | surface tension liquid-gas [mN/m] | viscosity [mPa·s]
293.15 K, x1 = 0.05 | 1046.29 | – | 5.782
293.15 K, x1 = 0.1001 | 1047.03 | 39.2 | 5.319
293.15 K, x1 = 0.1502 | 1047.73 | – | 4.905
293.15 K, x1 = 0.2001 | 1048.38 | 39.2 | 4.536
293.15 K, x1 = 0.25 | 1048.99 | – | 4.214
293.15 K, x1 = 0.3 | 1049.58 | 39.1 | 3.927
293.15 K, x1 = 0.3498 | 1050.15 | – | 3.678
293.15 K, x1 = 0.4001 | 1050.71 | 39 | 3.454
293.15 K, x1 = 0.45 | 1051.24 | – | 3.252
293.15 K, x1 = 0.5 | 1051.77 | 38.7 | 3.087
293.15 K, x1 = 0.5501 | 1052.26 | – | 2.93
293.15 K, x1 = 0.6001 | 1052.74 | 38.4 | 2.795
293.15 K, x1 = 0.65 | 1053.19 | – | 2.684
293.15 K, x1 = 0.6999 | 1053.64 | 38.1 | 2.589
293.15 K, x1 = 0.7502 | 1054.03 | – | 2.505
293.15 K, x1 = 0.8 | 1054.42 | 37.8 | 2.428
293.15 K, x1 = 0.85 | 1054.77 | – | 2.376
293.15 K, x1 = 0.9 | 1055.11 | 37.5 | 2.343
293.15 K, x1 = 0.95 | 1055.46 | – | 2.326
293.15 K, x1 = 1 | 1055.81 | 37.3 | 2.324
303.15 K, x1 = 0.05 | 1038.18 | – | 4.21
303.15 K, x1 = 0.1001 | 1038.83 | 38 | 3.894
303.15 K, x1 = 0.1502 | 1039.44 | – | 3.623
303.15 K, x1 = 0.2001 | 1040.01 | 37.9 | 3.378
303.15 K, x1 = 0.25 | 1040.58 | – | 3.165
303.15 K, x1 = 0.3 | 1041.11 | 37.8 | 2.972
303.15 K, x1 = 0.3498 | 1041.61 | – | 2.806
303.15 K, x1 = 0.4001 | 1042.1 | 37.5 | 2.662
303.15 K, x1 = 0.45 | 1042.57 | – | 2.535
303.15 K, x1 = 0.5 | 1043.01 | 37.1 | 2.432
303.15 K, x1 = 0.5501 | 1043.43 | – | 2.332
303.15 K, x1 = 0.6001 | 1043.84 | 36.7 | 2.234
303.15 K, x1 = 0.65 | 1044.24 | – | 2.171
303.15 K, x1 = 0.6999 | 1044.62 | 36.3 | 2.091
303.15 K, x1 = 0.7502 | 1044.99 | – | 2.035
303.15 K, x1 = 0.8 | 1045.35 | 36 | 1.985
303.15 K, x1 = 0.85 | 1045.7 | – | 1.941
303.15 K, x1 = 0.9 | 1046.05 | 35.8 | 1.902
303.15 K, x1 = 0.95 | 1046.4 | – | 1.867
303.15 K, x1 = 1 | 1046.74 | 35.6 | 1.836
313.15 K, x1 = 0.05 | 1030.21 | – | 3.18
313.15 K, x1 = 0.1001 | 1030.76 | 37 | 3.006
313.15 K, x1 = 0.1502 | 1031.27 | – | 2.848
313.15 K, x1 = 0.2001 | 1031.72 | 36.8 | 2.687
313.15 K, x1 = 0.25 | 1032.23 | – | 2.536
313.15 K, x1 = 0.3 | 1032.67 | 36.4 | 2.396
313.15 K, x1 = 0.3498 | 1033.08 | – | 2.265
313.15 K, x1 = 0.4001 | 1033.48 | 36 | 2.154
313.15 K, x1 = 0.45 | 1033.86 | – | 2.056
313.15 K, x1 = 0.5 | 1034.24 | 35.6 | 1.966
313.15 K, x1 = 0.5501 | 1034.6 | – | 1.903
313.15 K, x1 = 0.6001 | 1034.94 | 35.2 | 1.832
313.15 K, x1 = 0.65 | 1035.27 | – | 1.774
313.15 K, x1 = 0.6999 | 1035.57 | 34.8 | 1.728
313.15 K, x1 = 0.7502 | 1035.87 | – | 1.684
313.15 K, x1 = 0.8 | 1036.18 | 34.6 | 1.646
313.15 K, x1 = 0.85 | 1036.48 | – | 1.613
313.15 K, x1 = 0.9 | 1036.79 | 34.4 | 1.572
313.15 K, x1 = 0.95 | 1037.11 | – | 1.524
313.15 K, x1 = 1 | 1037.42 | 34.3 | 1.474
323.15 K, x1 = 0.05 | 1021.94 | – | 2.45
323.15 K, x1 = 0.1001 | 1022.36 | 36 | 2.349
323.15 K, x1 = 0.1502 | 1022.75 | – | 2.232
323.15 K, x1 = 0.2001 | 1023.12 | 35.7 | 2.125
323.15 K, x1 = 0.25 | 1023.48 | – | 2.021
323.15 K, x1 = 0.3 | 1023.81 | 35.2 | 1.925
323.15 K, x1 = 0.3498 | 1024.13 | – | 1.838
323.15 K, x1 = 0.4001 | 1024.44 | 34.8 | 1.756
323.15 K, x1 = 0.45 | 1024.73 | – | 1.683
323.15 K, x1 = 0.5 | 1025.02 | 34.3 | 1.62
323.15 K, x1 = 0.5501 | 1025.28 | – | 1.561
323.15 K, x1 = 0.6001 | 1025.53 | 33.9 | 1.521
323.15 K, x1 = 0.65 | 1025.79 | – | 1.482
323.15 K, x1 = 0.6999 | 1026.04 | 33.5 | 1.444
323.15 K, x1 = 0.7502 | 1026.28 | – | 1.41
323.15 K, x1 = 0.8 | 1026.52 | 33.4 | 1.387
323.15 K, x1 = 0.85 | 1026.77 | – | 1.361
323.15 K, x1 = 0.9 | 1027.01 | 33.3 | 1.339
323.15 K, x1 = 0.95 | 1027.26 | – | 1.308
323.15 K, x1 = 1 | 1027.51 | 33.2 | 1.256
